According to PMC5789640, “Depletion of Arabidopsis ACYL-COA-BINDING PROTEIN3 Affects Fatty Acid Composition in the Phloem” (Frontiers in Plant Science, 2018):

Target: T1, (His)6-AtACBP3 (Arabidopsis thaliana, UniProt Q9STX1)
T1 construct: gene ACBP3; plasmid pAT223, E. coli BL21(DE3) pLysS
T1 sequence (Q9STX1 23-362): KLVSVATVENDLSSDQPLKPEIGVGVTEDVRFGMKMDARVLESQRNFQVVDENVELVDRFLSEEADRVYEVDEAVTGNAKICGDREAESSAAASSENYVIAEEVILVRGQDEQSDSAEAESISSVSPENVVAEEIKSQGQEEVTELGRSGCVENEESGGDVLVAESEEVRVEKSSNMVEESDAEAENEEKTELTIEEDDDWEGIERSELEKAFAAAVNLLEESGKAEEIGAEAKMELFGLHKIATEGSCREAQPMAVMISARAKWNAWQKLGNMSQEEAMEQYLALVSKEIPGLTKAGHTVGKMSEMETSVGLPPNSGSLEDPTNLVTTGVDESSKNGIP
Assay: isothermal titration calorimetry
Format: binding
Text: isothermal titration calorimetry on (His)6-AtACBP3

Compound | Kd
CCCCCCCCCCCC(=O)SCCNC(=O)CCNC(=O)[C@H](O)C(C)(C)COP(=O)(O)OP(=O)(O)OC[C@H]1O[C@@H](n2cnc3c(N)ncnc32)[C@H](O)[C@@H]1OP(=O)(O)O [C12:0-CoA ester] | 33.1 ± 13 µM
CCCCCCCCCCCCCC(=O)SCCNC(=O)CCNC(=O)[C@H](O)C(C)(C)COP(=O)(O)OP(=O)(O)OC[C@H]1O[C@@H](n2cnc3c(N)ncnc32)[C@H](O)[C@@H]1OP(=O)(O)O [C14:0-CoA ester] | 4 ± 0.6 µM
CCCCCC/C=C\CCCCCCCC(=O)SCCNC(=O)CCNC(=O)[C@H](O)C(C)(C)COP(=O)(O)OP(=O)(O)OC[C@H]1O[C@@H](n2cnc3c(N)ncnc32)[C@H](O)[C@@H]1OP(=O)(O)O [C16:1-CoA ester] | 5.1 ± 1.9 µM
CCCCCCCCCCCCCCCCC(=O)SCCNC(=O)CCNC(=O)[C@H](O)C(C)(C)COP(=O)(O)OP(=O)(O)OC[C@H]1O[C@@H](n2cnc3c(N)ncnc32)[C@H](O)[C@@H]1OP(=O)(O)O [C17:0-CoA ester] | 21 ± 4.7 µM

More lines, now with the values ahead:

Kd | Compound
13.4 ± 1.4 µM | CCCCC/C=C\C/C=C\CCCCCCCC(=O)SCCNC(=O)CCNC(=O)[C@H](O)C(C)(C)COP(=O)(O)OP(=O)(O)OC[C@H]1O[C@@H](n2cnc3c(N)ncnc32)[C@H](O)[C@@H]1OP(=O)(O)O [C18:2-CoA ester]
8.6 ± 2 µM | CC/C=C\C/C=C\C/C=C\CCCCCCCC(=O)SCCNC(=O)CCNC(=O)[C@H](O)C(C)(C)COP(=O)(O)OP(=O)(O)OC[C@H]1O[C@@H](n2cnc3c(N)ncnc32)[C@H](O)[C@@H]1OP(=O)(O)O [C18:3-CoA ester]
